Literature values as cited in patent publication US20240139272A1, “USE OF A SPEARMINT EXTRACT FOR RETINA NEUROTROPHISM” (KEMIN INDUSTRIES, INC., priority 2022, published 2024).
Where two headings read alike, the source gives them in different places.

Test system: male Wistar rats
Conditions: for carrageenan-induced increase in paw volume (FIG. 1): 3 and 6 hours, spearmint extract at all doses, RA at the high dose (50 mg/kg), indomethacin 10 mg/kg

SMILES | paw volume increase compared to baseline (15 mg/kg intraperitoneal, 3 hours) | paw volume increase compared to baseline (15 mg/kg intraperitoneal, 6 hours) | paw volume increase compared to baseline (50 mg/kg intraperitoneal, 3 hours) | paw volume increase compared to baseline (50 mg/kg intraperitoneal, 6 hours) | carrageenan-induced increase in paw volume (FIG. 1) | paw volume increase compared to baseline (10 mg/kg intraperitoneal, 3 hours post-injection of carrageenan) | paw volume increase compared to baseline (10 mg/kg intraperitoneal, 6 hours post-injection of carrageenan)
O=C(/C=C/c1ccc(O)c(O)c1)O[C@H](Cc1ccc(O)c(O)c1)C(=O)O [rosmarinic acid] | 20% | 10% | 7% | 5% | substantially attenuated |  | 
COc1ccc2c(c1)c(CC(=O)O)c(C)n2C(=O)c1ccc(Cl)cc1 [Indomethacin] |  |  |  |  | substantially attenuated | 6% | 3%
